US5447926A, “Quinolone carboxylic acid derivatives” (SS Pharmaceutical Co., Ltd., priority 1990, dated 1995)
In brackets after ≈: the same amount, converted by molar mass.

What was measured:
[1] = system: Staphylococcus aureus Smith; conditions: 24 h
[2] = system: M.R. Staphylococcus aureus 421; conditions: 24 h
[3] = system: Micrococcus lysodeikticus IFO 3333; conditions: Micrococcus luteus, IFO3333, 24 h
Proteus vulgaris OXK = conditions: 24 h
[4] = system: Pseudomonas aeruginosa IFO 13736; conditions: IFO13736, 24 h
[5] = system: M.R. Staphylococcus aureus 395; conditions: 24 h
[6] = system: Strepto occus faecalis IFO 12964; conditions: 24 h
[7] = system: Klebsiella pneumonias ATCC 10031; conditions: ATCC10031, 24 h
[8] = system: Pseudomonas aeruginosa IFO 12582; conditions: IFO12582, 24 h
[9] = system: Staphylococcus aureus FDA 209P; conditions: FDA209P, 24 h
[10] = system: Staphylococcus epidermidis ATCC 12228; conditions: ATCC12228, 24 h
Serratia marcescens NHL = conditions: 24 h
[11] = system: Bacillus subtilis ATCC 6633; conditions: ATCC6633, 24 h
[12] = system: M.R. Staphylococcus aureus 415; conditions: 24 h
Shigella flexneri 2b = type: cell-based; conditions: 24 h
Sarcina lutea ATCC 9341 = conditions: Micrococcus luteus, ATCC9341, 24 h
Escherichia coli 0-1 = conditions: Escherichia coli, 01, 24 h
[13] = system: Klebsiella pneumonias IFO 13541; type: cell-based; conditions: IFO13541, 24 h, Gram-negative, Mueller Hinton Medium, 10^6 /ml, 37° C.
Proteus rettgeri = conditions: Providencia rettgeri, 24 h
[14] = system: M.R. Staphylococcus aureus 420; conditions: 24 h
Salmonella typhi TD = type: cell-based; conditions: Salmonella enterica, 24 h
[15] = system: Pseudomonas aeruginosa P2; conditions: P2, 24 h
[16] = system: M.R. Staphylococcus aureus 419; conditions: 24 h
Escherichia coli H-12 = conditions: H12, 24 h
[17] = system: Staphylococcus aureus Terajima; conditions: 24 h

| SMILES | MIC [1] [µg/mL] | MIC [2] [µg/mL] | MIC [3] [µg/mL] | MIC (Proteus vulgaris OXK) [µg/mL] | MIC [4] [µg/mL] | MIC [5] [µg/mL] | MIC [6] [µg/mL] | MIC [7] [µg/mL] | MIC [8] [µg/mL] | MIC [9] [µg/mL] | MIC [10] [µg/mL] | MIC (Serratia marcescens NHL) [µg/mL] | MIC [11] [µg/mL] | MIC [12] [µg/mL] | MIC (Shigella flexneri 2b) [µg/mL] | MIC (Sarcina lutea ATCC 9341) [µg/mL] | MIC (Escherichia coli 0-1) [µg/mL] | MIC [13] [µg/mL] | MIC (Proteus rettgeri) [µg/mL] | MIC [14] [µg/mL] | further results |
| --- | --- | --- | --- | --- | --- | --- | --- | --- | --- | --- | --- | --- | --- | --- | --- | --- | --- | --- | --- | --- | --- |
| O=C1CCN(c2c(F)cc3c(=O)c(C(=O)O)cn(C4CC4)c3c2Cl)CCN1 [Compound 2, 8-Chloro-1-cyclopropyl-6-fluoro-7-(2,3,4,5,6,7-hexahydro-1H-1,4-diazepin-5-one-1-yl)-4-oxoquinoline-3-carboxylic acid] | 0.012 (≈ 0.0305 µM) | 0.024 (≈ 0.0609 µM) | 0.049 (≈ 0.124 µM) | 0.024 (≈ 0.0609 µM) | 6.25 (≈ 15.9 µM) | 0.049 (≈ 0.124 µM) | 0.195 (≈ 0.495 µM) | 0.012 (≈ 0.0305 µM) | 6.25 (≈ 15.9 µM) | 0.012 (≈ 0.0305 µM) | 0.049 (≈ 0.124 µM) | 0.78 (≈ 1.98 µM) | 0.024 (≈ 0.0609 µM) | 0.024 (≈ 0.0609 µM) | 0.003 (≈ 0.00762 µM) | 0.195 (≈ 0.495 µM) | 0.195 (≈ 0.495 µM) | 0.098 (≈ 0.249 µM) | 0.78 (≈ 1.98 µM) | 0.024 (≈ 0.0609 µM) | MIC (Salmonella typhi TD): 0.098 µg/mL (≈ 0.249 µM); MIC [15]: 12.5 µg/mL (≈ 31.7 µM); MIC [16]: 0.024 µg/mL (≈ 0.0609 µM); MIC (Escherichia coli H-12): 0.39 µg/mL (≈ 0.99 µM); MIC [17]: 0.098 µg/mL (≈ 0.249 µM) |
| N[C@@H]1CCCCN(c2c(F)cc3c(=O)c(C(=O)O)cn(C4CC4)c3c2Cl)C1 [Compound 15] | 0.024 (≈ 0.0609 µM) | 0.049 (≈ 0.124 µM) | 0.195 (≈ 0.495 µM) | 0.049 (≈ 0.124 µM) | 1.56 (≈ 3.96 µM) | 0.049 (≈ 0.124 µM) | 0.195 (≈ 0.495 µM) | 0.012 (≈ 0.0305 µM) | 0.78 (≈ 1.98 µM) | 0.012 (≈ 0.0305 µM) | 0.049 (≈ 0.124 µM) | 0.195 (≈ 0.495 µM) | 0.024 (≈ 0.0609 µM) | 0.024 (≈ 0.0609 µM) | 0.006 (≈ 0.0152 µM) | 0.098 (≈ 0.249 µM) | 0.098 (≈ 0.249 µM) | 0.049 (≈ 0.124 µM) | 0.195 (≈ 0.495 µM) | 0.049 (≈ 0.124 µM) | MIC (Salmonella typhi TD): 0.049 µg/mL (≈ 0.124 µM); MIC [15]: 1.56 µg/mL (≈ 3.96 µM); MIC [16]: 0.024 µg/mL (≈ 0.0609 µM); MIC (Escherichia coli H-12): 0.098 µg/mL (≈ 0.249 µM); MIC [17]: 0.195 µg/mL (≈ 0.495 µM) |
| CC1COc2c(N3CCN(C)CC3)c(F)cc3c(=O)c(C(=O)O)cn1c23 (stereo not drawn) [Ofloxacin, reference compound] | 0.39 (≈ 1.08 µM) | 0.39 (≈ 1.08 µM) | 1.56 (≈ 4.32 µM) | 0.049 (≈ 0.136 µM) | 1.56 (≈ 4.32 µM) | 0.39 (≈ 1.08 µM) | 1.56 (≈ 4.32 µM) | 0.024 (≈ 0.0664 µM) | 3.12 (≈ 8.63 µM) | 0.195 (≈ 0.54 µM) | 0.78 (≈ 2.16 µM) | 0.049 (≈ 0.136 µM) | 0.098 (≈ 0.271 µM) | 0.39 (≈ 1.08 µM) | 0.012 (≈ 0.0332 µM) | 3.12 (≈ 8.63 µM) | 0.098 (≈ 0.271 µM) | 0.024 (≈ 0.0664 µM) | 0.098 (≈ 0.271 µM) | 0.39 (≈ 1.08 µM) | MIC (Salmonella typhi TD): 0.024 µg/mL (≈ 0.0664 µM); MIC [15]: 0.78 µg/mL (≈ 2.16 µM); MIC [16]: 0.39 µg/mL (≈ 1.08 µM); MIC (Escherichia coli H-12): 0.098 µg/mL (≈ 0.271 µM); MIC [17]: 0.78 µg/mL (≈ 2.16 µM) |
